Data as given in patent publication US8921398B2 (Boehringer Ingelheim International GmbH, priority 2011, dated 2014).

target: T1, human GPR119 (Homo sapiens, UniProt Q8TDV5); test: AlphaScreen cAMP assay in MIN6 cells stably transfected with human GPR119; type: cell-based; conditions: Min-6/hGPR119 cells, 45 minutes incubation at room temperature
T1 construct: expression vector for human GPR119 cDNA (Acc. No. NP_848566); expressed in transfected cells
T1 sequence (Q8TDV5 1-335): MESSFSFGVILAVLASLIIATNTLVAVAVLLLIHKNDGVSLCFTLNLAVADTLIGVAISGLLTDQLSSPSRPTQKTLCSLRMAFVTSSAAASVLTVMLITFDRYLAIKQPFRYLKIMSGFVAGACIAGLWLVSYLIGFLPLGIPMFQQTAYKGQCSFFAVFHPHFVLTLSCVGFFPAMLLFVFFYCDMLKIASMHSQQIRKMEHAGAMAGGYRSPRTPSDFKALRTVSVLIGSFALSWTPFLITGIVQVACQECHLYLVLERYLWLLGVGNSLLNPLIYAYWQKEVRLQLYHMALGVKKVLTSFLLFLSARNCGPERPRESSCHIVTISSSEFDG
Description: The compounds of formula I according to the invention modulate the activity of the G-protein-coupled receptor GPR119. The effect of the compounds on the activation of GPR119 and on the stimulation of intracellular cAMP concentration is determined using the AlphaScreen cAMP Assay Kit (Cat.No.#6760625R) made by PerkinElmer.
MIN6 cells [Miyazaki J et al. Endocrinology. 1990 July; 127(1):126-32] are stably transfected with an expression vector for human GPR119 cDNA (Acc. No. NP_848566). Min-6/hGPR119 cells are cultured in DMEM, 10% FBS, 50 μM β-mercaptoethanol, 0.3 mg/mL Geniticin, 2 mM GlutaMAX at 37° C. 5% CO2. For the assay, the cells are seeded in Optiplates (white, 384-well, 160W-barcoded, TC, sterile with lid, Cat.No.#6007688 (Perkin Elmer); 10000 cells/well; 50 μl). The plates covered with lids are then incubated for 24 hours at 37° C./5% CO2. After the medium is aspirated from the wells completely, 10 μl of the test compound are added, the compounds are diluted using stimulating buffer (140 mM NaCl, 3.6 mM KCl, 0.5 mM NaH2PO4, 0.5 mM MgSO4, 1.5 mM CaCl2, 10 mM Hepes, 5 mM NaHCO3; pH 7.4. 0.5 mM IBMX and 0.1% BSA, the final DMSO concentration is 1%). After 45 minutes incubation at room temperature (approx. 20° C.), the cAMP concentrations are determined using the AlphaScreen cAMP Assay Kit (Cat.No.#6760625R from PerkinElmer).

Row | Compound | EC50
1 | CCCc1noc(N2CCC(N(C(=O)c3noc(-c4ccc(C#N)cc4F)n3)C3CC3)CC2)n1 [Example 18, 5-(4-Cyano-2-fluoro-phenyl)-[1,2,4]oxadiazole-3-carboxylic acid cyclopropyl-[1-(3-propyl-[1,2,4]oxadiazol-5-yl)-piperidin-4-yl]-amide] | 7 nM
2 | CS(=O)(=O)c1ccc(-c2ncc(C(=O)N(C3CC3)C3CCN(c4noc(C5CC5)n4)CC3)cn2)cc1 [Example 20, 2-(4-Methanesulfonyl-phenyl)-pyrimidine-5-carboxylic acid cyclopropyl-[1-(5-cyclopropyl-[1,2,4]oxadiazol-3-yl)-piperidin-4-yl]-amide] | 92 nM
3 | CC(C)c1noc(N2CCC(N(C(=O)c3ccc(-c4ccc(S(C)(=O)=O)cc4)nc3)C3CC3)CC2)n1 [Example 6, N-Cyclopropyl-N-[1-(3-isopropyl-[1,2,4]oxadiazol-5-yl)-piperidin-4-yl]-6-(4-methanesulfonyl-phenyl)-nicotinamide] | 96 nM
4 | N#CCc1ccc(-c2ncc(C(=O)N(C3CC3)C3CCN(c4nc(-c5ccccc5)no4)CC3)cn2)cc1 [Example 9, 2-(4-Cyanomethyl-phenyl)-pyrimidine-5-carboxylic acid cyclopropyl-[1-(3-phenyl-[1,2,4]oxadiazol-5-yl)-piperidin-4-yl]-amide] | 19 nM
5 | CC(C)c1noc(N2CCC(N(C(=O)c3ccc(-c4cnco4)nc3)C3CC3)CC2)n1 [Example 35, N-Cyclopropyl-N-[1-(3-isopropyl-[1,2,4]oxadiazol-5-yl)-piperidin-4-yl]-6-oxazol-5-yl-nicotinamide] | 33 nM
6 | CC(C)(C)c1noc(N2CCC(N(C(=O)c3cc(-c4ccc(C#N)cc4F)no3)C3CC3)CC2)n1 [Example 31, 3-(4-Cyano-2-fluoro-phenyl)-isoxazole-5-carboxylic acid [1-(3-tert-butyl-[1,2,4]oxadiazol-5-yl)-piperidin-4-yl]-cyclopropyl-amide] | 6 nM
7 | CC(C)c1noc(N2CCC(N(C(=O)c3cnc(-c4cnco4)cn3)C3CC3)CC2)n1 [Example 33, 5-Oxazol-5-yl-pyrazine-2-carboxylic acid cyclopropyl-[1-(3-isopropyl-[1,2,4]oxadiazol-5-yl)-piperidin-4-yl]amide] | 25 nM
8 | CCc1noc(N2CCC(N(C(=O)c3cnc(-c4ccc(C#N)c(F)c4)nc3)C3CC3)CC2)n1 [Example 11, 2-(4-Cyano-3-fluoro-phenyl)-pyrimidine-5-carboxylic acid cyclopropyl-[1-(3-ethyl-[1,2,4]oxadiazol-5-yl)-piperidin-4-yl]-amide] | 32 nM
9 | CC(C)c1noc(N2CCC(N(C(=O)c3cc(-c4ccc(C#N)cc4F)on3)C3CC3)CC2)n1 [Example 29, 5-(4-Cyano-2-fluoro-phenyl)-isoxazole-3-carboxylic acid cyclopropyl-[1-(3-isopropyl-[1,2,4]oxadiazol-5-yl)-piperidin-4-yl]-amide] | 3 nM
10 | CC(C)(C)c1noc(N2CCC(N(C(=O)c3ccc(-c4cnco4)nc3)C3CC3)CC2)n1 [Example 36, N-[1-(3-tert-Butyl-[1,2,4]oxadiazol-5-yl)-piperidin-4-yl]-N-cyclopropyl-6-oxazol-5-yl-nicotinamide] | 46 nM
11 | CC(C)(C)c1noc(N2CCC(N(C(=O)c3cc(-c4ccc(C#N)cc4F)on3)C3CC3)CC2)n1 [Example 30, 5-(4-Cyano-2-fluoro-phenyl)-isoxazole-3-carboxylic acid [1-(3-tert-butyl-[1,2,4]oxadiazol-5-yl)-piperidin-4-yl]-cyclopropyl-amide] | 5 nM

The next lines start with the values.

Row | EC50 | Compound
12 | 59 nM | CCc1cnc(N2CCC(N(C(=O)c3ccc(-c4cnco4)nc3)C3CC3)CC2)cn1 [Example 37, N-Cyclopropyl-N-[1-(5-ethyl-pyrazin-2-yl)-piperidin-4-yl]-6-oxazol-5-yl-nicotinamide]
13 | 83 nM | Cc1nccn1-c1ncc(C(=O)N(C2CC2)C2CCN(c3noc(C4CC4)n3)CC2)cn1 [Example 24, 2-(2-Methyl-imidazol-1-yl)-pyrimidine-5-carboxylic acid cyclopropyl-[1-(5-cyclopropyl-[1,2,4]oxadiazol-3-yl)-piperidin-4-yl]-amide]
14 | 159 nM | Cc1cnc(N2CCC(N(C(=O)c3ccc(-c4cnco4)nc3)C3CC3)CC2)nc1 [Example 41, N-Cyclopropyl-N-[1-(5-methyl-pyrimidin-2-yl)-piperidin-4-yl]-6-oxazol-5-yl-nicotinamide]
15 | 101 nM | CCOc1ccc(-c2ncc(C(=O)N(C3CC3)C3CCN(c4nc(CC)no4)CC3)cn2)cn1 [Example 10, 2-(6-Ethoxy-pyridin-3-yl)-pyrimidine-5-carboxylic acid cyclopropyl-[1-(3-ethyl-[1,2,4]oxadiazol-5-yl)-piperidin-4-yl]-amide]
16 | 60 nM | CCc1cnc(N2CCC(N(C(=O)c3cnc(-n4ccnc4CC)nc3)C3CC3)CC2)nc1 [Example 15, 2-(2-Ethyl-imidazol-1-yl)-pyrimidine-5-carboxylic acid cyclopropyl-[1-(5-ethyl-pyrimidin-2-yl)-piperidin-4-yl]-amide]
17 | 231 nM | Cc1cnc(N2CCC(N(C(=O)c3ccc(-c4cnco4)nc3)C3CC3)CC2)cn1 [Example 42, N-Cyclopropyl-N-[1-(5-methyl-pyrazin-2-yl)-piperidin-4-yl]-6-oxazol-5-yl-nicotinamide]
18 | 36 nM | CCc1noc(N2CCC(N(C(=O)c3cnc(-c4ccc(CC#N)cc4)nc3)C3CC3)CC2)n1 [Example 8, 2-(4-Cyanomethyl-phenyl)-pyrimidine-5-carboxylic acid cyclopropyl-[1-(3-ethyl-[1,2,4]oxadiazol-5-yl)-piperidin-4-yl]-amide]
19 | 21 nM | CCc1cnc(N2CCC(N(C(=O)c3cnc(-n4ccnc4C)nc3)C3CC3)CC2)nc1 [Example 14, 2-(2-Methyl-imidazol-1-yl)-pyrimidine-5-carboxylic acid cyclopropyl-[1-(5-ethyl-pyrimidin-2-yl)-piperidin-4-yl]-amide]
20 | 156 nM | CCc1nccn1-c1ncc(C(=O)N(C2CC2)C2CCN(c3noc(C4CC4)n3)CC2)cn1 [Example 26, 2-(2-Ethyl-imidazol-1-yl)-pyrimidine-5-carboxylic acid cyclopropyl-[1-(5-cyclopropyl-[1,2,4]oxadiazol-3-yl)-piperidin-4-yl]-amide]
21 | 6 nM | Cc1nccn1-c1ncc(C(=O)N(C2CC2)C2CCN(c3ncc(C(F)(F)F)cc3F)CC2)cn1 [Example 27, 2-(2-Methyl-imidazol-1-yl)-pyrimidine-5-carboxylic acid cyclopropyl-(3′-fluoro-5′-trifluoromethyl-3,4,5,6-tetrahydro-2H-[1,2′]bipyridinyl-4-yl)-amide]
22 | 35 nM | CCc1cnc(N2CCC(N(C(=O)c3cnc(-n4ccnc4)nc3)C3CC3)CC2)nc1 [Example 12, 2-Imidazol-1-yl-pyrimidine-5-carboxylic acid cyclopropyl-[1-(5-ethyl-pyrimidin-2-yl)-piperidin-4-yl]-amide]
23 | 103 nM | CCCc1noc(N2CCC(N(C(=O)c3cnc(-n4ccnc4CC)nc3)C3CC3)CC2)n1 [Example 23, 2-(2-Ethyl-imidazol-1-yl)-pyrimidine-5-carboxylic acid cyclopropyl-[1-(3-propyl-[1,2,4]oxadiazol-5-yl)-piperidin-4-yl]-amide]
24 | 25 nM | CCOc1ccc(-c2ncc(C(=O)N(C3CC3)C3CCN(c4nc(-c5ccccc5)no4)CC3)cn2)cn1 [Example 7, 2-(6-Ethoxy-pyridin-3-yl)-pyrimidine-5-carboxylic acid cyclopropyl-[1-(3-phenyl[1,2,4]oxadiazol-5-yl)-piperidin-4-yl]amide]
25 | 89 nM | CCCc1noc(N2CCC(N(C(=O)c3ccc(-c4cnco4)nc3)C3CC3)CC2)n1 [Example 40, N-Cyclopropyl-6-oxazol-5-yl-N-[1-(3-propyl-[1,2,4]oxadiazol-5-yl)-piperidin-4-yl]-nicotinamide]
26 | 67 nM | CCCc1noc(N2CCC(N(C(=O)c3cnc(-c4cnco4)cn3)C3CC3)CC2)n1 [Example 39, 5-Oxazol-5-yl-pyrazine-2-carboxylic acid cyclopropyl-[1-(3-propyl-[1,2,4]oxadiazol-5-yl)-piperidin-4-yl]-amide]
27 | 487 nM | CCOc1ccc(-c2ncc(C(=O)N(C3CC3)C3CCN(c4ncc(CC)cn4)CC3)cn2)cn1 [Example 3, 2-(6-Ethoxy-pyridin-3-yl)-pyrimidine-5-carboxylic acid cyclopropyl-[1-(5-ethyl-pyrimidin-2-yl)-piperidin-4-yl]-amide]
